Reference: publication PMC2782911 (Cancer, 2009)
Read-outs that look alike come from different tables or passages of the source.

How the values were obtained:
human SLC5A8 [1] = molecular target: T1, human SLC5A8 (Homo sapiens, UniProt Q8N695); assay: Inhibition of [14C]nicotinate uptake via human SLC5A8 expressed in HRPE cells; format: cell-based
T1 sequence (Q8N695 1-610): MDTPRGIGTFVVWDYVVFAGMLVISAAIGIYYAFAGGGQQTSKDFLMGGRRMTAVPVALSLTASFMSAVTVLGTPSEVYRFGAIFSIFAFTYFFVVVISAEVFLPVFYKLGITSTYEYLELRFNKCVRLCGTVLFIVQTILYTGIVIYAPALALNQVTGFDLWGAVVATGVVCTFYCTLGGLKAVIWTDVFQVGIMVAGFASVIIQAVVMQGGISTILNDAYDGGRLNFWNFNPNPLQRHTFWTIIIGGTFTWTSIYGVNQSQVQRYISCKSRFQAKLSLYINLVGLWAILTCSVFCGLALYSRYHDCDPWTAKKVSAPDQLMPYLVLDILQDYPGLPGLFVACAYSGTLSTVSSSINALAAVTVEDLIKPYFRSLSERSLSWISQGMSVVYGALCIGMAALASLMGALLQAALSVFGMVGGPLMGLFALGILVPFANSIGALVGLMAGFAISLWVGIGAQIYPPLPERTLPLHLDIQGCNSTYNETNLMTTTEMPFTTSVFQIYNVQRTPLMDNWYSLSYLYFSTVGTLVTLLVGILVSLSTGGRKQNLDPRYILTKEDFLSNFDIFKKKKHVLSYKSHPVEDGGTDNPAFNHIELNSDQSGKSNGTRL

human SLC5A8 [2] = molecular target: T1, human SLC5A8; assay: Substrate-induced currents in X. laevis oocytes expressing human SLC5A8; format: cell-based; conditions: for inward currents in SLC5A8-expressing oocytes: 1 mM compound, in the presence of NaCl, not detectable in absence of Na+, -50 mV; for K0.5 (substrate concentration for half-maximal current): saturation kinetics of substrate-induced currents, human SLC5A8 oocytes
recombinant human HDAC1 = recombinant human HDAC1 (Homo sapiens, UniProt Q13547); assay: Recombinant human HDAC1 activity assay; format: biochemical; conditions: for inhibition of HDAC1: 1 mM, recombinant human isoform
Chain of recombinant human HDAC1 (Q13547 whole entry, canonical isoform): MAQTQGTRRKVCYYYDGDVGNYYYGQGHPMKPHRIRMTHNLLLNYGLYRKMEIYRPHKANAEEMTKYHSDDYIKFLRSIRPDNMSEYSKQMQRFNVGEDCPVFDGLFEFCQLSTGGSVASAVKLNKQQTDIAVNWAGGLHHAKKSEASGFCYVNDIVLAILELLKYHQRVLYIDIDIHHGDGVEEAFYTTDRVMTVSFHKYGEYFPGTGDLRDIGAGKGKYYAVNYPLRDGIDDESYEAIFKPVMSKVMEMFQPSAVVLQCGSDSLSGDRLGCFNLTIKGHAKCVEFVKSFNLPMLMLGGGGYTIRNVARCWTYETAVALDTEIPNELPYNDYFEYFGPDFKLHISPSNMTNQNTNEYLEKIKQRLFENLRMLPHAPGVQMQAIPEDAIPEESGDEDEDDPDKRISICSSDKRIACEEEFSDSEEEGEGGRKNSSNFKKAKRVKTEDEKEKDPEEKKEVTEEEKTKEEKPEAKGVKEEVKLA

recombinant human HDAC3 = recombinant human HDAC3 (Homo sapiens, UniProt O15379); assay: Recombinant human HDAC3 activity assay; format: biochemical; conditions: for inhibition of HDAC3: 1 mM, recombinant human isoform
Chain of recombinant human HDAC3 (O15379 whole entry, canonical isoform): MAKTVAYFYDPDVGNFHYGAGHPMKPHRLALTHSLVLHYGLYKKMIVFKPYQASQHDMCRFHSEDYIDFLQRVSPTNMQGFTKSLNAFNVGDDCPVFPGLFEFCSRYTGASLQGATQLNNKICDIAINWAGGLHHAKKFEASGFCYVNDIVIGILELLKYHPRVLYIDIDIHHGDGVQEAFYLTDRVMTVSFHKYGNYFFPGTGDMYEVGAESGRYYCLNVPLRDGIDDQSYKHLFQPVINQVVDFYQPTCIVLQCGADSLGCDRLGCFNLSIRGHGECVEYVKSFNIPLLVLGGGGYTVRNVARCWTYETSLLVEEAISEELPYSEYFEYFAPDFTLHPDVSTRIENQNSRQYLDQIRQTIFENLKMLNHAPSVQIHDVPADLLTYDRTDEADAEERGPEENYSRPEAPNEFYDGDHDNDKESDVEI
Chain of recombinant human HDAC3 (Q9Y618 395-489 partner limits assumed): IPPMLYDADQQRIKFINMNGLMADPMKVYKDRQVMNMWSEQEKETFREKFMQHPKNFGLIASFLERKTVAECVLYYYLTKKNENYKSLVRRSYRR

recombinant human HDAC2 = recombinant human HDAC2 (Homo sapiens, UniProt Q92769); assay: Recombinant human HDAC2 activity assay; format: biochemical; conditions: 1 mM, recombinant human isoform
Chain of recombinant human HDAC2 (Q92769 whole entry, canonical isoform): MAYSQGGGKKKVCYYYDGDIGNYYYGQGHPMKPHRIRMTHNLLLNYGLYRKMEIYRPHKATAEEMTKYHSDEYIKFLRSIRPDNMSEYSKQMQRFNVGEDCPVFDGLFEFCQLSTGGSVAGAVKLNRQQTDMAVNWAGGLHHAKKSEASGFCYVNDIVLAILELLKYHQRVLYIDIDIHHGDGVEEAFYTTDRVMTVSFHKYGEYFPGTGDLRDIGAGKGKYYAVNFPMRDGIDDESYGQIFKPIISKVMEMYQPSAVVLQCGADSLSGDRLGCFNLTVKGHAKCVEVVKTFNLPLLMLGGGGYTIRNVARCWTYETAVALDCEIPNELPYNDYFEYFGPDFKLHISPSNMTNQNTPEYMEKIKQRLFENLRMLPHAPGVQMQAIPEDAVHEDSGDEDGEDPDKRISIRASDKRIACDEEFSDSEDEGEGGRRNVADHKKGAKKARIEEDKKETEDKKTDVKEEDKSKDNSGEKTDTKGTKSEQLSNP

recombinant human HDAC6 = molecular target: T2, recombinant human HDAC6 (Homo sapiens, UniProt Q9UBN7); assay: Recombinant human HDAC6 activity assay; format: biochemical; conditions: 1 mM, recombinant human isoform
T2 sequence (Q9UBN7 1-1215): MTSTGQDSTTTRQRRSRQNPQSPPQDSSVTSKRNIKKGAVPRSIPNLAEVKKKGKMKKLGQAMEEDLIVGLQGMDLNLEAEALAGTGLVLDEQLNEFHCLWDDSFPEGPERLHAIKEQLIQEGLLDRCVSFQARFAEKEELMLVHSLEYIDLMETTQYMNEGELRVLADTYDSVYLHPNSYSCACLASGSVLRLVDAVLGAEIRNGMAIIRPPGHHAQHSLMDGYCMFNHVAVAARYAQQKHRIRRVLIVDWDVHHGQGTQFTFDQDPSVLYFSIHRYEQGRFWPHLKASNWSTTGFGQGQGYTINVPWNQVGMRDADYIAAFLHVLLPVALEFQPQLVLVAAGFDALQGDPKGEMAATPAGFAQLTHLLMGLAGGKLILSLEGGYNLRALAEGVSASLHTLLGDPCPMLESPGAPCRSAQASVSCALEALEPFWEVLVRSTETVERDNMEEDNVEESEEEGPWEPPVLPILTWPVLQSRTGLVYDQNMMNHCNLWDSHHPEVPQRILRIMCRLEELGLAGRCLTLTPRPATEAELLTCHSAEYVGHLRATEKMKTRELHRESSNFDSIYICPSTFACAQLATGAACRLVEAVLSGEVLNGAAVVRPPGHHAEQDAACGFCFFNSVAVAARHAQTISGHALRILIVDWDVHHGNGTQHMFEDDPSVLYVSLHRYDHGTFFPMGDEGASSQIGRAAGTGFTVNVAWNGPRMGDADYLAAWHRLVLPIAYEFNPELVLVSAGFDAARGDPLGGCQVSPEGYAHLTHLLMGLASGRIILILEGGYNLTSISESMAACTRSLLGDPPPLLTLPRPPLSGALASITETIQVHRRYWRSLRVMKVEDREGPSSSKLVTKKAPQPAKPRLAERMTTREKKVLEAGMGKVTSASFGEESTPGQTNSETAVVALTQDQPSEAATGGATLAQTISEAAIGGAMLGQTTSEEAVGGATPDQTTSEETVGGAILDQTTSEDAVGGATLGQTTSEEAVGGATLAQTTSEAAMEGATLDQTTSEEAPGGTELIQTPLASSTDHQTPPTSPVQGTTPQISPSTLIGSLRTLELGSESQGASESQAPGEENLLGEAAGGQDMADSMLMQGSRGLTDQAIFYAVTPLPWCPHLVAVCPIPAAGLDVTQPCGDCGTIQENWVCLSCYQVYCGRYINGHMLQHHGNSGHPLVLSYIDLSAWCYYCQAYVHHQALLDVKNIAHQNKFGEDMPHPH

recombinant human HDAC5 = recombinant human HDAC5 (Homo sapiens, UniProt Q9UQL6); assay: Recombinant human HDAC5 activity assay; format: biochemical; conditions: 1 mM, recombinant human isoform
Chain of recombinant human HDAC5 (Q9UQL6 whole entry, canonical isoform): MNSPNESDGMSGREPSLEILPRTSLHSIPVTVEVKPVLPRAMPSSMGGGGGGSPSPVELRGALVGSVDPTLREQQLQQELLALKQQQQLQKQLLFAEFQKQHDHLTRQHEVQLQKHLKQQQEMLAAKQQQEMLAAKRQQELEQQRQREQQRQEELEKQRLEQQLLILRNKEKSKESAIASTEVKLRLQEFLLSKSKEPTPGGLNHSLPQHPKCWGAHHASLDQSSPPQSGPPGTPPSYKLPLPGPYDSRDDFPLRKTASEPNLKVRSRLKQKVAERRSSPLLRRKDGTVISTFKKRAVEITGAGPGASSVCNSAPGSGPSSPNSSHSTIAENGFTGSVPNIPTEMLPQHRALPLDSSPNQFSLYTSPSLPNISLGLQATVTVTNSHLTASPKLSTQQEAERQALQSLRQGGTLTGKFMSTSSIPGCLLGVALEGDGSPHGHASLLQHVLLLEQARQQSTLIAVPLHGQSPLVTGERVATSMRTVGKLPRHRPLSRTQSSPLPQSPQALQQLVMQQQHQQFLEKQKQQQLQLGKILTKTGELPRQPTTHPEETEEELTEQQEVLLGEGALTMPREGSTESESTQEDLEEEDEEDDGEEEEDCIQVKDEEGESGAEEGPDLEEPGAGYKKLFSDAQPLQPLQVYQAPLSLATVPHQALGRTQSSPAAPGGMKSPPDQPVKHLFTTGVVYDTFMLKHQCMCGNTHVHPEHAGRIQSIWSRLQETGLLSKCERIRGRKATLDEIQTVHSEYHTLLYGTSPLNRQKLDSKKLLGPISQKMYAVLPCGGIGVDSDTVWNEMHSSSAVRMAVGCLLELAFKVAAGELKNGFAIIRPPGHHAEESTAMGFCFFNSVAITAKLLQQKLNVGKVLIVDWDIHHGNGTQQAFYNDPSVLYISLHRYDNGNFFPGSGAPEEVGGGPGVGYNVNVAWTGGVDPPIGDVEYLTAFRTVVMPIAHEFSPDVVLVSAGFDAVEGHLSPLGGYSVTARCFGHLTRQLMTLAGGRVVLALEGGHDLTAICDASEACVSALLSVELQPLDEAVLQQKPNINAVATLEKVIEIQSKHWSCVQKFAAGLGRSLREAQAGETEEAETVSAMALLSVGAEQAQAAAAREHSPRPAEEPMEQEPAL

recombinant human HDAC8 = molecular target: T3, recombinant human HDAC8 (Homo sapiens, UniProt Q9BY41); assay: Recombinant human HDAC8 activity assay; format: biochemical; conditions: 1 mM, recombinant human isoform
T3 sequence (Q9BY41 1-377): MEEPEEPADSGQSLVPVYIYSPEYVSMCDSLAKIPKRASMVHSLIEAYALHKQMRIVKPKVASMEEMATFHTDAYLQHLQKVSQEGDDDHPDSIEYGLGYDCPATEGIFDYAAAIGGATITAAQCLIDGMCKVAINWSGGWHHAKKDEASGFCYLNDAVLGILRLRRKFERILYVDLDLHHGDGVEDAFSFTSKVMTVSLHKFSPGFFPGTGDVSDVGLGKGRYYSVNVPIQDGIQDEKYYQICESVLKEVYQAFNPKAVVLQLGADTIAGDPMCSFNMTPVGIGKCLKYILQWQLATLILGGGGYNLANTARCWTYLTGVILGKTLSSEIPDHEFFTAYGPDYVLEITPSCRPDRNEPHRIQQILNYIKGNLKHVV

recombinant human HDAC9 = recombinant human HDAC9 (Homo sapiens, UniProt Q9UKV0); assay: Recombinant human HDAC9 activity assay; format: biochemical; conditions: 1 mM, recombinant human isoform
Chain of recombinant human HDAC9 (Q9UKV0 whole entry, canonical isoform): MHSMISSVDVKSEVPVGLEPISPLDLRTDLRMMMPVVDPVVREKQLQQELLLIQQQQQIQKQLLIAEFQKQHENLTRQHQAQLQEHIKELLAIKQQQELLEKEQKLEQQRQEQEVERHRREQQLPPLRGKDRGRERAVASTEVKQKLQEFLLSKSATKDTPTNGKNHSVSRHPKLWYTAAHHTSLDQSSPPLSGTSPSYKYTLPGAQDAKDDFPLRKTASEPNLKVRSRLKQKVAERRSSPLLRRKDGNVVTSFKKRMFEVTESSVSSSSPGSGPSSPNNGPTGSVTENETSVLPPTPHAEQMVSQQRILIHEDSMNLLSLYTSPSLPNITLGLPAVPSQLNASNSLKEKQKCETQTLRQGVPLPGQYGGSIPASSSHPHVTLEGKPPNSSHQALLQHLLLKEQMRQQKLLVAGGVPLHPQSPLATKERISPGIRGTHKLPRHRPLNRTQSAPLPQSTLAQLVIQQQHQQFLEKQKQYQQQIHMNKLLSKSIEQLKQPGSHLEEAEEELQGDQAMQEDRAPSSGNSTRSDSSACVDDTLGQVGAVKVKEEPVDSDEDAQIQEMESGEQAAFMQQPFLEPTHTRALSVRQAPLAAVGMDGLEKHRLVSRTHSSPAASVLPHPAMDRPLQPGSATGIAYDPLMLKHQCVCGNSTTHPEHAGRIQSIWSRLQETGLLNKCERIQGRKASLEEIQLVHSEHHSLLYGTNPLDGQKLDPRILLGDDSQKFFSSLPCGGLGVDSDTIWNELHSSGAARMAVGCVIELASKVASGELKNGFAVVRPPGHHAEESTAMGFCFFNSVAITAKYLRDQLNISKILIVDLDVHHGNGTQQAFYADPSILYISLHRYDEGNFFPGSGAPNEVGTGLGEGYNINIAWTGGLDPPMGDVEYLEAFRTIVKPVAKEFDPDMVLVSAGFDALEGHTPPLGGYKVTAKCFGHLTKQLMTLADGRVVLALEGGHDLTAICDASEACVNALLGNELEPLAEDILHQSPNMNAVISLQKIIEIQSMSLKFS

MCF7 cells [3] = assay: Colony formation assay in MCF7 cells; conditions: vector-transfected MCF7 cells, increasing concentrations, two weeks
MCF7 cells [4] = assay: Apoptosis of MCF7 cells by FACS analysis
HDACs in MCF7 cells = assay: HDAC activity in lysates of MCF7 cells cultured with compound; conditions: vector-transfected MCF7 cells cultured with 1 mM compound
rat Slc5a8 = molecular target: T4, rat Slc5a8 (Rattus norvegicus, UniProt D3Z9E5); assay: Inhibition of [14C]nicotinate uptake via rat Slc5a8 expressed in HRPE cells; format: cell-based; conditions: read-out: inhibition of nicotinate uptake
T4 sequence (D3Z9E5 1-611): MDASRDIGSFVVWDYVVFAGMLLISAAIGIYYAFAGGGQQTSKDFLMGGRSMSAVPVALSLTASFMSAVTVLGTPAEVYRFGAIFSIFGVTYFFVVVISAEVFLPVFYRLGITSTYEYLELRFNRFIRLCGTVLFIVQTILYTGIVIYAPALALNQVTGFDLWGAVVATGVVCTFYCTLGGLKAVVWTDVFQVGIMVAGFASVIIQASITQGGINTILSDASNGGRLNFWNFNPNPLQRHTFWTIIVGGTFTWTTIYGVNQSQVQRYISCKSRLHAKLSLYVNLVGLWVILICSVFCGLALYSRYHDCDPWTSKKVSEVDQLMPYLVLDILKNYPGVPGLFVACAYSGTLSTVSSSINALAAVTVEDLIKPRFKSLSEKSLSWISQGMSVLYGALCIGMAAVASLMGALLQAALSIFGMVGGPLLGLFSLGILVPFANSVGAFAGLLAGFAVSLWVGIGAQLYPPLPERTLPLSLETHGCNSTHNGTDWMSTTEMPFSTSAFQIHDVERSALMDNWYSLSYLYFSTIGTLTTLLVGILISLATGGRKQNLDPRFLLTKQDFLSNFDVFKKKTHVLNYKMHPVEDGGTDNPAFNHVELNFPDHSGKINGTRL

mouse Slc5a8 = molecular target: T5, mouse Slc5a8 (Mus musculus, UniProt Q8BYF6); assay: Inhibition of [14C]nicotinate uptake via mouse Slc5a8 expressed in HRPE cells; format: cell-based; conditions: read-out: inhibition of nicotinate uptake
T5 sequence (Q8BYF6 1-611): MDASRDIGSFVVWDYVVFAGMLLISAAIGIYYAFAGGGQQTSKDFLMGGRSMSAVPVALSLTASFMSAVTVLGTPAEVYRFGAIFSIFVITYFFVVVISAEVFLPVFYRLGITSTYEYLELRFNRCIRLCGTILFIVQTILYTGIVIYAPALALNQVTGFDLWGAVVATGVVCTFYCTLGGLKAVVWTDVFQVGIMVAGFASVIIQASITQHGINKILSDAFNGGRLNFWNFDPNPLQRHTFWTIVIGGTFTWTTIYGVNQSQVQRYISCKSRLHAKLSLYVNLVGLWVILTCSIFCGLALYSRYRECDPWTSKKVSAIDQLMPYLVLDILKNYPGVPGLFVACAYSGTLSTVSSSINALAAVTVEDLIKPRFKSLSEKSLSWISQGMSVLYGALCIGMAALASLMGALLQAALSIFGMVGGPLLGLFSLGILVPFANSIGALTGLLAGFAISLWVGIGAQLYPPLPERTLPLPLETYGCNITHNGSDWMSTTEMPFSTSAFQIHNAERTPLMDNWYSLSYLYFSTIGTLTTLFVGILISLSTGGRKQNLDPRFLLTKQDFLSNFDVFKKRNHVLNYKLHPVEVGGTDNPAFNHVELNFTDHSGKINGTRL

[5] = Na+-activation kinetics of 3-bromopyruvate-induced currents
[6] = MCF7 cells ectopically expressing SLC5A8, 1 mM
[7] = vector-transfected MCF7 cells, 1 mM

O=C(O)C(=O)CBr [3-bromopyruvate]
IC50 (human SLC5A8 [1]; read-out: IC50 for the inhibition of human SLC5A8 (nicotinate uptake), human SLC5A8 in HRPE cells, [14C]nicotinate 15 μM, 15 min, means ± S.E.): 32 ± 9 µM
inward currents in SLC5A8-expressing oocytes (human SLC5A8 [2]): induced inward currents
current induced relative to current induced by pyruvate (human SLC5A8 [2]; 1 mM, pyruvate-induced current taken as 100%, four oocytes): approximately 50%
Hill coefficient for the activation of transport by Na+ (human SLC5A8 [2]; [5]): 1.4 ± 0.2
K0.5 value for Na+ to activate the transport process (human SLC5A8 [2]; [5]): 32 ± 4 mM
transportable substrate or blocker of SLC5A8 (human SLC5A8 [2]; conclusion from Na+-dependent inward currents at 1 mM): transportable substrate
K0.5 (substrate concentration for half-maximal current) (human SLC5A8 [2]): 495 ± 25 µM
inhibition of HDAC1 (recombinant human HDAC1): marked inhibition
inhibition of HDAC3 (recombinant human HDAC3): marked inhibition
inhibition of HDAC2 (recombinant human HDAC2): inhibited to a lesser, but significant, extent
inhibition of HDAC6 (recombinant human HDAC6): inhibited to a lesser, but significant, extent
effect on HDAC5 (recombinant human HDAC5): no effect
effect on HDAC8 (recombinant human HDAC8): no effect
effect on HDAC9 (recombinant human HDAC9): no effect
colony formation (cell viability) (MCF7 cells [3]): affected only minimally
apoptosis (FACS) (MCF7 cells [4]; [6]): induced marked apoptosis
apoptosis (FACS), added effect after siRNA silencing (MCF7 cells [4]; MCF7 cells with HDAC1 or HDAC3 silenced by siRNA, then 3-bromopyruvate 1 mM 48 h): did not have any added effect
apoptosis (FACS) after siRNA silencing (MCF7 cells [4]; MCF7 cells with HDAC2 silenced by siRNA, 3-bromopyruvate 1 mM 48 h): did not cause apoptosis
apoptosis (FACS) (MCF7 cells [4]; [7]): not affected
change in HDAC activity (HDACs in MCF7 cells): no change in HDAC activity

CC(=O)C(=O)O [pyruvate]
inhibition at 1000 µM (rat Slc5a8): 60%
inhibition at 1000 µM (mouse Slc5a8): 75%
IC50 (human SLC5A8 [1]): 652 ± 139 µM
inhibition at 1000 µM (human SLC5A8 [1]; HRPE, read-out: inhibition of nicotinate uptake): 55%
inward currents in SLC5A8-expressing oocytes (human SLC5A8 [2]): induced inward currents
substrate-induced current (human SLC5A8 [2]; 1 mM, four oocytes, NaCl buffer): 215 ± 45 nA
K0.5 (substrate concentration for half-maximal current) (human SLC5A8 [2]): 312 ± 16 µM
IC50 (recombinant human HDAC1): 30 ± 14 µM
inhibition of HDAC1 (recombinant human HDAC1): inhibited HDAC1 and HDAC3 preferentially
IC50 (recombinant human HDAC3): 40 ± 11 µM
inhibition of HDAC3 (recombinant human HDAC3): inhibited HDAC1 and HDAC3 preferentially
colony formation (cell viability) (MCF7 cells [3]): affected only minimally
apoptosis (FACS) (MCF7 cells [4]; [6]): induced marked apoptosis
apoptosis (FACS) (MCF7 cells [4]; [7]): not affected
change in HDAC activity (HDACs in MCF7 cells): no change in HDAC activity
